Data set [1] deals with lens elasticity. Nature of the data set: Pharmacological Test 1: effect of EV06 eye drops on lens elasticity (lens diameter change under cover glass). Format: in vivo, C57BL/6J mice. To be noted: 3 times per day for 15 to 17 days; for Lens elasticity improvement: 2.5 μL/eye, 8-month-old mice, vs vehicle control. On the procedure:
The effect of lipoic acid choline ester (EV06) on the lens elasticity was examined. The tests were conducted with reference to the methods described in InvestOphthalmol Vis Sci, 57, 2851-2863, 2016. EV06 is a compound represented by the following formula (2): A vehicle comprising 0.1% (w/v) of ethyl pyruvate, 0.269% (w/v) of sodium dihydrogenphosphate monohydrate (NaH2PO4H2O), 0.433% (w/v) of disodium hydrogenphosphate (Na2HPO4), 0.2% (w/v) of hydroxypropyl methylcellulose, and 0.5% (w/v) of NaCl was prepared. EV06 was sonicated with the addition of the vehicle to prepare a 5% (w/v) suspension. The resulting 5% (w/v) suspension was diluted with the vehicle to prepare a 1.5% (w/v) solution. Further, the resulting 1.5% (w/v) solution was diluted with the vehicle to prepare a 0.5% (w/v) solution. The total amount of each sample to be used in one day was prepared before use. 1) Each test sample (2.5 μL/eye) was instilled into the right eye of 8-month-old C57BL/6J mice with a Pipetman 3 times per day (around 9:00, 13:00 and 17:00) for 15 to 17 days. 2) After the final instillation, the mice were euthanized by carbon dioxide inhalation, and then the eyeballs were extracted and rinsed with Hank's balanced salt solution (HBSS). 3) The sclera near the optic nerve was cut with a razor, the lens was removed through the incision, and the removed lens was immersed in HESS. 4) The lens was placed on a glass slide, and an all-in-one fluorescence microscope BZ-9000 (Keyence) was used to capture an image of the lens (Image a). 5) Next, one cover glass (Corning^(registered trade mark) 22×22 mm Square) was placed on the lens, and an image in which the thickness of the lens changed due to the weight was similarly captured (Image b). 6) A change in the lens diameter was calculated from Equation 1 wherein the lens diameter of Image a is subtracted from the lens diameter of Image b, as described below. Then, the lens elasticity improvement of each sample group compared with the vehicle control group was calculated from Equation 2 described below. The mean of the vehicle control group was based on 6 eyes and the mean of each EV06 sample group was based on 12 eyes. Change in lens diameter=Lens diameter in Image b of each test sample−Lens diameter in Image a of each test sample (Equation 1) Lens elasticity improvement of each sample group=Mean change in lens diameter of each EV06 sample group−Mean change in lens diameter of Vehicle control group (Equation 2) (Results)

In data set [2] the test system is lens elasticity. Nature of the data set: Pharmacological Test 2: effect of sodium 4-phenylbutyrate eye drops on lens elasticity. Format: in vivo, C57BL/6J mice. The following applies: 3 times per day for 12 to 15 days; for Lens elasticity improvement: 2.5 μL/eye, 8-month-old mice, vs vehicle control. On the procedure:
The effect of sodium 4-phenylbutyrate on the lens elasticity was examined. A vehicle comprising 0.1% (w/v) of ethyl pyruvate, 0.269% (w/v) of sodium dihydrogenphosphate monohydrate (NaH2PO4H2O), 0.433% (w/v) of disodium hydrogenphosphate (Na2HPO4), 0.2% (w/v) of hydroxypropyl methylcellulose, 0.5% (w/v) of NaCl was prepared. Sodium 4-phenylbutyrate was sonicated with the addition of the vehicle to prepare a 1.5% (w/v) solution. The resulting 1.5% (w/v) solution was diluted with the vehicle to prepare a 0.5% (w/v) solution. Further, the resulting 0.5% (w/v) solution was diluted with the vehicle to prepare a 0.15% (w/v) solution. The total amount of each sample to be used in one day was prepared before use. EV06 was sonicated with the addition of the vehicle to prepare a 1.5% (w/v) solution. The total amount of the sample to be used in one day was prepared before use. 1) Each test sample (2.5 μL/eye) was instilled into the right eye of 8-month-old C57BL/6J mice with a Pipetman 3 times per day (around 9:00, 13:00 and 17:00) for 12 to 15 days. 2) After the final instillation, the mice were euthanized by carbon dioxide inhalation, and then the eyeballs were extracted and rinsed with Hank's balanced salt solution (HBSS). 3) The sclera near the optic nerve was cut with a razor, the lens was removed through the incision, and the removed lens was immersed in HESS. 4) The lens was placed on a glass slide, and an all-in-one fluorescence microscope BZ-9000 (Keyence) was used to capture an image of the lens (Image a). 5) Next, one cover glass (Corning^(registered trade mark) 22×22 mm Square) was placed on the lens, and an image in which the thickness of the lens changed due to the weight was similarly captured (Image b). 6) A change in the lens diameter was calculated from Equation 1 wherein the lens diameter of Image a is subtracted from the lens diameter of Image b, as described below. Then, the lens elasticity improvement of each sample group compared with the vehicle control group was calculated from Equation 2 described below. The mean of the vehicle control group was based on 4 eyes, the mean of each sodium 4-phenylbutyrate sample group and the mean of the EV06 sample group were based on 9-10 eyes. Change in lens diameter=Lens diameter in Image b of each test sample−Lens diameter in Image a of each test sample (Equation 1) Lens elasticity improvement of each sample group=Mean change in lens diameter of each Test sample group−Mean change in lens diameter of Vehicle control group (Equation 2) (Results)

Data set [3] relates to lens elasticity. Nature of the data set: Pharmacological Test 3: effect of once-daily instillation of sodium 4-phenylbutyrate for 2 weeks on lens elasticity. Format: in vivo, C57BL/6J mice. To be noted: for Lens elasticity improvement: 2.5 μL/eye, vs vehicle control. On the procedure: The effect of once-daily instillation of sodium 4-phenylbutyrate for 2 weeks on the lens elasticity was examined. A vehicle comprising 0.1% (w/v) of ethyl pyruvate, 0.269% (w/v) of sodium dihydrogenphosphate monohydrate (NaH2PO4H2O), 0.433% (w/v) of disodium hydrogenphosphate (Na2HPO4), 0.2% (w/v) of hydroxypropyl methylcellulose, and 0.5% (w/v) of NaCl was prepared. Sodium 4-phenylbutyrate was dissolved with the addition of the vehicle to prepare a 3.0% (w/v) solution. The resulting 3.0% (w/v) solution was diluted with the vehicle to prepare a 1.0% (w/v) solution. Further, the resulting 1.0% (w/v) solution was diluted with the vehicle to prepare a 0.3% (w/v) solution. The total amount of each sample to be used in one day was prepared before use. EV06 was sonicated with the addition of the vehicle to prepare a 1.5% (w/v) solution. The total amount of the sample to be used in one day was prepared before use. 1) Each test sample (2.5 μL/eye) was instilled into the right eye of 8-month-old C57BL/6J mice with a Pipetman once per day (QD; around 9:00) or 3 times per day (TID; around 9:00, 13:00 and 17:00) for 14 days. 2) After the final instillation, the mice were euthanized by carbon dioxide inhalation, and then the eyeballs were extracted and rinsed with Hank's balanced salt solution (HBSS). 3) The sclera near the optic nerve was cut with a razor, the lens was removed through the incision, and the removed lens was immersed in HBSS. 4) The lens was placed on a glass slide, and an all-in-one fluorescence microscope BZ-9000 (Keyence) was used to capture an image of the lens (Image a). 5) Next, one cover glass (Corning^(registered trade mark) 22×22 mm Square) was placed on the lens, and an image in which the thickness of the lens changed due to the weight was similarly captured (Image b). 6) A change in the lens diameter was calculated from Equation 1 wherein the lens diameter of Image a is subtracted from the lens diameter of Image b, as described below. Then, the lens elasticity improvement of each sample group compared with the vehicle control group was calculated from Equation 2 described below. The mean of the vehicle control group was based on 5 eyes. The mean of each sodium 4-phenylbutyrate sample group and the mean of each EV06 sample group were based on 9 to 10 eyes. Change in lens diameter=Lens diameter in Image b of each test sample−Lens diameter in Image a of each test sample (Equation 1) Lens elasticity improvement of each sample group=Mean change in lens diameter of each Test sample group−Mean change in lens diameter of Vehicle control group (Equation 2) (Results)

Data set [4] relates to anterior segment of the eye. Nature of the data set: Ocular Irritation Test (McDonald-Shadduck method, lens observation, histopathology). In kind it is in vivo, Japanese White rabbits. Here is the method: A vehicle (aqueous solution) comprising 0.1% (w/v) of ethyl pyruvate, 0.269% (w/v) of sodium dihydrogenphosphate monohydrate (NaH2PO4H2O), 0.433% (w/v) of disodium hydrogenphosphate (Na2HPO4), 0.2% (w/v) of hydroxypropyl methylcellulose, 0.5% (w/v) of NaCl was prepared.
0.3% (w/v), 1% (w/v), and 3% (w/v) sodium 4-phenylbutyrate ophthalmic liquids were prepared in the same manner as in the above pharmacological tests. These ophthalmic liquids and the vehicle were each instilled into the left eye of Japanese White rabbits at a dose of 50 μL/eye with pipette twice per day at a 6-hour interval for 2 weeks. One hour after the final instillation, ocular irritation of anterior segment of the eye was evaluated according to the McDonald-Shadduck method, and the lens was observed. The contralateral eye was […].
The ocular irritation of anterior segment of the eye was scored according to the following criteria:
+1: mild; +2: moderate; +3: severe.

Take `C[N+](C)(C)CCOC(=O)CCCC[C@@H]1CCSS1.[Cl-]` [EV06, lipoic acid choline ester]: the Lens elasticity improvement in the data set with lens elasticity [1] (0.5% (w/v) sample) came out at 28.8 μm; in the data set on lens elasticity [1] (1.5% (w/v) sample) it was 47.3 μm; in the data set on lens elasticity [1] (5% (w/v) sample), 48.7 μm; with lens elasticity [2] (1.5% (w/v) sample), 49.0 μm; in the data set on lens elasticity [3] (1.5% (w/v) sample, 3 times per day (TID) for 14 days), 47.9 μm; in the data set with lens elasticity [3] (1.5% (w/v) sample, once per day (QD) for 14 days) it was 21.6 μm. The “Lens elasticity improving effect (in words)” value in the data set on lens elasticity [1] (all of the 0.5%, 1.5%, and 5% groups) is “increased lens diameter compared with the vehicle control group”.

Regarding `O=C([O-])CCCc1ccccc1.[Na+]` [sodium 4-phenylbutyrate], the Lens elasticity improvement in the data set on lens elasticity [2] (0.15% (w/v) sample) is 38.1 μm; in the data set with lens elasticity [2] (0.5% (w/v) sample) it was 47.5 μm; in the data set on lens elasticity [2] (1.5% (w/v) sample) it was 51.4 μm; with lens elasticity [3] (0.3% (w/v) sample, once per day (QD) for 14 days), 25.6 μm; in the data set with lens elasticity [3] (1.0% (w/v) sample, once per day (QD) for 14 days) it was 30.6 μm; in the data set on lens elasticity [3] (3.0% (w/v) sample, once per day (QD) for 14 days), 48.1 μm. In addition, in the data set with lens elasticity [2] (1.5% sample group), the “Lens elasticity improving effect compared with EV06 at the same concentration” value is given as “stronger than that of EV06”. In the data set with lens elasticity [2] (all of the 0.15%, 0.5%, and 1.5% groups), the “Lens elasticity improving effect (in words)” value is listed as “potent lens elasticity improving effect”. The “Overall safety of ophthalmic liquids (in words)” value in data set [4] (ophthalmic liquids, rabbit 2-week instillation) is listed as “highly safe”. The “Histopathological examination of the eyes (in words)” value in data set [4] (rabbit, in vivo) was “showed no abnormal findings”. Besides, the “Observation of ocular irritation of anterior segment of the eye and lens observation (in words)” value in data set [4] (rabbit, in vivo) is “no abnormal findings were observed”. Also, the “Lens elasticity improvement (in words)” value with lens elasticity [3] (0.3%, 1% and 3% samples instilled once-daily for 14 days) is listed as “potent lens elasticity improvement”. For the same compound, the “Lens elasticity improvement compared with 1.5% EV06” value with lens elasticity [3] (concentrations 1.0% and 3.0%, once-daily for 14 days) was “more potent lens elasticity improvement compared with 1.5% EV06”.

Source of the values: patent publication US12290497B2, “Agent containing 4-phenylbutyrate, for preventing or treating presbyopia” (SANTEN PHARMACEUTICAL CO., LTD., priority 2018, dated 2025).
